Results: paper PMC6240685, “Strong Inhibitory Effect, Low Cytotoxicity and High Plasma Stability of Steroidal Inhibitors of N-Methyl-D-Aspartate Receptors With C-3 Amide Structural Motif” (Frontiers in Pharmacology, 2018)
Where two headings read alike, the source gives them in different places.

Legend:
HepG2 cells [1] = assay: ROS induction (CM-H2DCFDA); assay type: cell-based; conditions: Homo sapiens, HepG2, 72 h; read-out: ROS induction EC50
Description: (§1) (A) Hepatotoxicity provoked by compound 4 was assessed after 72 h incubation of HepG2 cells in low glucose medium (5 mM) in the presence of compound 4 (0.25–100 μM). (B) Mitochondrial toxicity was determined after 24 h incubation of HepG2 cells in either high glucose medium (25 mM) or galactose medium (10 mM) in the presence of compound 4 (2.5–150 μM). Cell viabilities were recorded in triplicates in three independent experiments and expressed as percentage of vehicle control ± SD and IC50 values were determined by GraphPad Prism software using following equation: Y = Bottom + (Top–Bottom)/(1 + 10ˆ((LogIC50-X)^∗HillSlope)), where IC50 is the concentration of compound 4 that inhibits cell viability half way between Bottom and Top plateaus, X is compound 4 concentration and HillSlope describes the steepness of the family of curves. […] (C) Concentration-dependent effect on ROS level. HepG2 cells were treated with compound 4 (0.25–100 μM) for 72 h, and then the intracellular level of total ROS in relative fluorescence units (RFU) was detected. The data are presented as the mean ± SD for at least three independent experiments and each experiment was carried out in triplicate. Final concentration of DMSO in samples was 1%. […] Single asterisks (^∗) indicate a significant difference (P < 0.05) compared to 1% DMSO control (one-way ANOVA with Dunnett’s post-test).
The effect of neurosteroids on oxidative stress was determined using general oxidative stress indicator CM-H2DCFDA (Thermo Fisher Scientific, Waltham, MA, United States) according to the manufacturer’s instructions. Briefly HepG2 cells were seeded in a 96-well plate at a density of 13,500 cells per well. After 24 h, the tested neurosteroids were added to the culture media and incubated for 72 h. Subsequently, cells were washed with HBSS, treated with 100 μL of 1 μM CM-H2DCF-DA solution in HBSS and incubated for 1 h in the dark at 37°C. Finally, cells were washed three times with HBSS and the fluorescence was measured using 495 excitation and 527 emission in fluorescence microplate reader (Cytation 3, Winooski, VT, United States). IC50 index values were determined by GraphPad Prism version 5.00 for Windows (GraphPad Software, La Jolla, CA, United States).

GluN1/GluN2B receptors = target: T1, GluN1/GluN2B receptors (Rattus norvegicus, UniProt P35439+Q00960); assay: Patch-clamp inhibition of glutamate responses of GluN1/GluN2B receptors in transfected HEK293 cells; assay type: cell-based
T1 construct: expressed in transfected cells; host or cells: HEK293
T1 sequence (Q00960 27-1482, other chains not shown): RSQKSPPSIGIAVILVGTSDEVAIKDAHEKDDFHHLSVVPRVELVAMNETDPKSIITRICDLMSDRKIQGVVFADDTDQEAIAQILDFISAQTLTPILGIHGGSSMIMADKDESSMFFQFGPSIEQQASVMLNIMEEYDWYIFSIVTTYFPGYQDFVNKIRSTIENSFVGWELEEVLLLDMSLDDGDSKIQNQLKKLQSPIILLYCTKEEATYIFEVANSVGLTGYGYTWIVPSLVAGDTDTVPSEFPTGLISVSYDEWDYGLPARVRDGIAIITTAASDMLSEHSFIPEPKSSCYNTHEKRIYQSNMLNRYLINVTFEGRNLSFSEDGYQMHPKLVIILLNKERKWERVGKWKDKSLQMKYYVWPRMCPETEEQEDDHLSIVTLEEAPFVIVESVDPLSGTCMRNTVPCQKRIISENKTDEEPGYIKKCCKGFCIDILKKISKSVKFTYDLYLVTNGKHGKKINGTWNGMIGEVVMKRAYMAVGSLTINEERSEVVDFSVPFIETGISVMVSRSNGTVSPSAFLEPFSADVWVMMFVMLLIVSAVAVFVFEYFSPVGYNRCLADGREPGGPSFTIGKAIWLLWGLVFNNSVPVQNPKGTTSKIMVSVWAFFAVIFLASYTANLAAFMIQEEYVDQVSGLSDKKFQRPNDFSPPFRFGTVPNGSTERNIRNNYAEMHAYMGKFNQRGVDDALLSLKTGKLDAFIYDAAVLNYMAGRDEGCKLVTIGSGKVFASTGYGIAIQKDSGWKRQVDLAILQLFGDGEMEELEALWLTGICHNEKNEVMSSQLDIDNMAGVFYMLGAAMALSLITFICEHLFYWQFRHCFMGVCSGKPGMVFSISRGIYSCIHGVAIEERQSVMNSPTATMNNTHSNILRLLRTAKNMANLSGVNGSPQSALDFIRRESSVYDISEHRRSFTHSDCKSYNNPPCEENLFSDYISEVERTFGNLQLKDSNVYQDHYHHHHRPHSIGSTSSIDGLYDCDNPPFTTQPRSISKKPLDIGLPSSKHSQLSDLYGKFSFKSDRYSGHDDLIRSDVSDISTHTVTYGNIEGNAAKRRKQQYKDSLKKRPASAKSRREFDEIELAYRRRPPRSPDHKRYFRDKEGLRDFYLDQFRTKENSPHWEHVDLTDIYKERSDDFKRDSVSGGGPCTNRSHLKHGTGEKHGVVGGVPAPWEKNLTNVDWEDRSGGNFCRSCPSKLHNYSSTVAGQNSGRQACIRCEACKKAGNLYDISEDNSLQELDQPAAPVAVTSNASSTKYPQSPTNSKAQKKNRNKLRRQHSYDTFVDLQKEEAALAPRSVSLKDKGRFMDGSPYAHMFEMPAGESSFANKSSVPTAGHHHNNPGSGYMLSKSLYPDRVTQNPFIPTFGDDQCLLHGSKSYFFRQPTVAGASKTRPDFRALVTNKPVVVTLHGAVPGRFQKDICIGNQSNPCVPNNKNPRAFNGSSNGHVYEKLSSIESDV

[2] = Plasma stability, rat plasma; assay type: in vitro ADME
HepG2 cells [3] = assay: Hepatotoxicity, XTT viability after 72 h; assay type: cell-based; conditions: Homo sapiens; 72 h, HepG2, 5.5 mM glucose; read-out: Hepatotoxicity IC50, 5.5 mM glucose
Description: Then, the cell viability (XTT assay) and reactive oxygen species (ROS) induction were evaluated.
as §1
(§2) HepG2 cells (ATCC®, United Kingdom) were grown in complete Minimal Essential Medium (EMEM) (5.5 mM glucose) medium, supplemented with 10% (v/v) fetal calf serum, 200 μg/mL of streptomycin, 200 U/mL of penicillin G and 4 mM glutamine. They were cultured under a humidified atmosphere containing 5% CO2 at 37°C.
(§3) The cytotoxicity of the tested compounds was assessed with use of XTT cell proliferation kit II (Roche Diagnostics GmbH, Mannheim, Germany) according to the manufacturer’s instructions. Briefly HepG2 cells were seeded in a 96-well plate at a density of 22,000 cells per well. After 24 h, the tested neurosteroids in a concentration range from 0.5 to 200 μM were added to the culture media and incubated for 72 h before the XTT dye was added. Mitochondrial toxicity was assessed in HepG2 cells using glucose and galactose conditioned media and XTT assay as a read out for cell viability. In brief, cells were seeded onto 96 well, clear bottom tissue culture plates at a density of 22,000 cells/well and left overnight to attach. Six hours prior to the neurosteroids treatment the media was replaced with 100 μL DMEM media containing either glucose (25 mM glucose; 1 mM pyruvate; 2 mM glutamine, 10% FBS) or galactose (10 mM galactose, 1 mM pyruvate, 6 mM glutamine, 10% FBS). After that, the tested neurosteroids in a concentration range from 0.5 to 200 μM were added in the fresh appropriate assay medium (glucose or galactose) and incubated for 24 h before the XTT dye was added. The XTT absorbance was recorded at 495 nm after 1 h incubation with the dye. Compounds were dissolved in DMSO to produce the stock solutions at the concentration of 10 mM, with exception of PAG, 1, 6 (5 mM), and 11 (2.5 mM). Results were expressed as percentages of change in viability compared to appropriate DMSO control. IC50 values were determined by GraphPad Prism version 5.00 for Windows (GraphPad Software, La Jolla, CA, United States). All experiments were done in triplicates in three independent experiments to check the reproducibility.

[4] = Plasma stability, human plasma; assay type: in vitro ADME
Description: Then, 37.8 μL of stock solution was added to 1400 μL of human plasma, maintained at 37°C. Aliquots (50 μL) withdrawn at 0, 1, 4, 8, and 24 h were analyzed by HPLC. […] The supernatant was transferred to an autosampler vial and 1 μL was injected onto LC-MS system. The samples were analyzed with an Agilent 1260 HPLC (Agilent Technologies) coupled to ESI-TOF Agilent 6530 (Agilent Technologies) with Agilent Jet Stream Technology. Samples were separated on a Waters ACQUITY UPLC CSH Phenyl-Hexyl (100 × 2.1, 130 Å, 1.7 μm) at a flow rate 0.3 ml/min. […] The mass spectrometry instrument was operated in a negative ion mode with a voltage of +3.00 kV applied to the capillary. The temperature, the flow rate of the nitrogen drying gas, the pressure of the nitrogen nebulizing gas, and the flow rate of the sheath gas were set at 325°C, 10 l/min, 40 psi, 390°C, and 11 l/min, respectively. Results are represented as a percentage of a compound remaining in spiked human plasma.

HepG2 cells [5] = assay: Mitotoxicity, XTT viability in glucose vs galactose medium; conditions: for Glu/Gal index (fold change): 24 h, HepG2, index higher than 3 indicates potential mitochondrial toxicity; for IC50: Homo sapiens, HepG2, 24 h
Description: as §1, §2, §3

[6] = as repeated in Table 2, read-out: IC50
[7] = current responses to glutamate, HEK293, IC50 from single steroid dose, Hill coefficient fixed at 1.2, read-out: IC50 ± SD
[8] = read-out: Mitotoxicity IC50, 10 mM galactose
[9] = read-out: Mitotoxicity IC50, 25 mM glucose

Row | SMILES | EC50 (HepG2 cells [1]) | ΔGexp (GluN1/GluN2B receptors) | IC50 (GluN1/GluN2B receptors; [6]) | IC50 ± SD (GluN1/GluN2B receptors; current responses to glutamate, HEK293, IC50 from single steroid dose, Hill coefficient fixed at 1.2) | IC50 (GluN1/GluN2B receptors; [7]) | remaining at 8 h, 42.1 μg/mL ([2]; rat plasma, 8 h, 37°C, read-out: Plasma stability (% remaining after 8 h), Rat) | IC50 (HepG2 cells [3]) | remaining at 8 h, 42.1 μg/mL ([4]; human plasma, 8 h, 37°C, read-out: Plasma stability (% remaining after 8 h), Human) | Glu/Gal index (fold change) (HepG2 cells [5]) | IC50 (HepG2 cells [5]; [8]) | IC50 (HepG2 cells [5]; [9]) | remaining at 8 h, 42.1 μg/mL ([2]; rat, plasma) | remaining at 8 h, 42.1 μg/mL ([4]; human, plasma) | melting point
1 | C[C@@]12CCC[C@H]1[C@@H]1CC[C@@H]3C[C@H](NC(=O)C(=O)O)CC[C@]3(C)[C@H]1CC2 [Compound 1, 2-(((3R,5R,8S,9S,10S,13S,14S)-10,13-dimethylhexadecahydro-1H-cyclopenta[a]phenanthren-3-yl)amino)-2-oxoacetic acid] | 52 ± 6 µM | -6.39 kcal/mol | 21.7 µM | least inhibitory activity | 21.7 ± 4.8 µM | 100% | 42 ± 7 µM | 100% | 1.97 | 72 ± 9 µM | 142 ± 12 µM |  |  | 
2 | CC(C)(C)OC(=O)N[C@@H](CC(=O)O)C(=O)N[C@@H]1CC[C@@]2(C)[C@H](CC[C@H]3[C@@H]4CCC[C@@]4(C)CC[C@@H]32)C1 [Compound 5, (S)-3-((tert-butoxycarbonyl)amino)-4-(((3R,5R,8S,9S,10S,13S,14S)-10,13-dimethylhexadecahydro-1H-cyclopenta[a]phenanthren-3-yl)amino)-4-oxobutanoic acid] | > 200 µM | -7.22 kcal/mol | 5.4 µM |  | 5.4 ± 2.3 µM |  | > 200 µM |  |  | > 200 µM | > 200 µM | 93% | 100% | 
3 | C[C@@]12CCC[C@H]1[C@@H]1CC[C@@H]3C[C@H](NC(=O)CC(=O)O)CC[C@]3(C)[C@H]1CC2 [Compound 2, 3-(((3R,5R,8S,9S,10S,13S,14S)-10,13-dimethylhexadecahydro-1H-cyclopenta[a]phenanthren-3-yl)amino)-3-oxopropanoic acid] | 165 ± 18 µM | -6.59 kcal/mol |  |  |  |  | 148 ± 14 µM |  | 1.32 | 174 ± 12 µM | > 200 µM | 100% | 98% | 
4 | CS(=O)(=O)Nc1ccc([N+](=O)[O-])cc1Oc1ccccc1 [Nimesulide, nimesulide, reference compound] | 3.5 ± 0.5 µM |  |  |  |  |  | 2.2 ± 0.3 µM |  | 3.88 | 18 ± 4 µM | 72 ± 8 µM |  |  | 
5 | C[C@@]12CCC[C@H]1[C@@H]1CC[C@@H]3C[C@H](NC(=O)C[C@H](N)C(=O)O)CC[C@]3(C)[C@H]1CC2 [Compound 10, (S)-2-amino-4-(((3R,5R,8S,9S,10S,13S,14S)-10,13-dimethylhexadecahydro-1H-cyclopenta[a]phenanthren-3-yl)amino)-4-oxobutanoic acid] | > 200 µM | -7.27 kcal/mol | 4.9 µM |  | 4.9 ± 1.7 µM |  | > 200 µM |  |  | > 200 µM | > 200 µM | 100% | 100% | 188 to 190 °C
6 | C[C@@]12CCC[C@H]1[C@@H]1CC[C@@H]3C[C@H](NC(=O)CCCC(=O)O)CC[C@]3(C)[C@H]1CC2 [Compound 4, 5-(((3R,5R,8S,9S,10S,13S,14S)-10,13-dimethylhexadecahydro-1H-cyclopenta[a]phenanthren-3-yl)amino)-5-oxopentanoic acid] | 7 ± 2 µM | -6.92 kcal/mol | 8.9 µM |  | 8.9 ± 1 µM |  | 4 ± 0.2 µM |  |  | 11 ± 3 µM | 48 ± 6 µM | 99% | 96% | 
7 | C[C@@]12CCC[C@H]1[C@@H]1CC[C@@H]3C[C@H](NC(=O)CCC(=O)O)CC[C@]3(C)[C@H]1CC2 [Compound 3, 4-(((3R,5R,8S,9S,10S,13S,14S)-10,13-dimethylhexadecahydro-1H-cyclopenta[a]phenanthren-3-yl)amino)-4-oxobutanoic acid] | > 200 µM | -6.78 kcal/mol | 11.2 µM |  | 11.2 ± 7.2 µM |  | > 200 µM |  |  | > 200 µM | > 200 µM | 100% | 98% | 
8 | C[C@@]12CCC[C@H]1[C@@H]1CC[C@@H]3C[C@H](NC(=O)[C@@H](N)CCC(=O)O)CC[C@]3(C)[C@H]1CC2 [Compound 8, (S)-4-amino-5-(((3R,5R,8S,9S,10S,13S,14S)-10,13-dimethylhexadecahydro-1H-cyclopenta[a]phenanthren-3-yl)amino)-5-oxopentanoic acid] | 71 ± 9 µM | -8.02 kcal/mol | 1.4 µM |  | 1.4 ± 0.2 µM |  | 65 ± 5 µM |  | 1.04 | 94 ± 14 µM | 98 ± 11 µM | 95% | 98% | 
9 | CC(C)(C)OC(=O)N[C@@H](CCC(=O)O)C(=O)N[C@@H]1CC[C@@]2(C)[C@H](CC[C@@H]3[C@@H]4CCC[C@@]4(C)CC[C@@H]32)C1 [Compound 7, (S)-4-((tert-butoxycarbonyl)amino)-5-(((3R,5R,8R,9S,10S,13S,14S)-10,13-dimethylhexadecahydro-1H-cyclopenta[a]phenanthren-3-yl)amino)-5-oxopentanoic acid] | > 200 µM | -7.22 kcal/mol | 5.4 µM |  | 5.4 ± 2.4 µM |  | > 200 µM |  |  | > 200 µM | > 200 µM | 94% | 97% | 
